How the values were obtained:
[1] = Solubility, screen method, phosphate buffer pH 7.4, 1% DMSO; type: physicochemical; conditions: phosphate buffer with 1% DMSO; 100 mM phosphate buffer pH 7.4, 1% DMSO; assay range 0.1 to 100 μM
[2] = Plasma stability in human plasma; type: in vitro ADME; conditions: for half-life at 1 μM / remaining at 12 s, 1 μM / remaining at 5 min, 1 μM / remaining at 10 min, 1 μM / remaining at 0.5 h, 1 μM / remaining at 1 h, 1 μM / remaining at 2 h, 1 μM / remaining at 4 h, 1 μM: human, pooled human plasma; for half-life at 1 μM: 37 °C, read-out: T ½ in human plasma; for remaining at 12 s, 1 μM: 0.2 min (first sample, reference); for remaining at 0.5 h, 1 μM: 30 min; for remaining at 1 h, 1 μM: 60 min; for remaining at 2 h, 1 μM: 120 min; for remaining at 4 h, 1 μM: 240 min; for degradation in human plasma: sampling at 5 min and later
Description: It should be noted that esterase-labile compounds are notoriously difficult to study in microsomal stability studies.[36]
Materials for experiments described in the supporting information (solubility) […]
Dimethylsulfoxide (DMSO) CHROMASOLV™ Plus, >99.7%
Acetonitrile (MeCN) LiChrosolv, hypergrade for LC-MS, Merck Chemicals
Formic acid (HCOOH) For LC-MS, Carlo-Erba
Water > 18MΩcm quality (Milli-Q, Millipore
Di-sodium-hydrogenphoshate dihydrate Merck
Sodium-dihydrogenphosphate monohydrate Merck
Autosampler Agilent 1260 Multisampler, G7167A
Gradient LC-pump Agilent 1260 Flexible Pump, G7104C
Analytical Flow 0.5 mL/min
Analytical column Luna® Omega 1.6 µm Polar C18 100Å, 50 x 2.1 mm
Injection volume 3.0 µL (15 µL for “high” injection of buffer sample) […]
Mobile phase A H2O/MeCN/Formic acid 95/5/0.1
Mobile phase B H2O/MeCN/Formic acid 5/95/0.1
Materials and analytical parameters for FT-ICR-MALDI-HRMS
The high-resolution mass spectrometry (HR-MS) experiments were performed using a MALDI-Fourier-transform ion cyclotron resonance (FTICR) (7T solariX XR-2ω, Bruker Daltonics) mass spectrometer equipped with a Smartbeam II 2 kHz laser. Briefly, a stock solution (1mg/ml) of the compound 5 was prepared and mixed 1:1 with a matrix solution containing DHB (40 mg/ml) in 50% ACN (0.02% TFA). 1 µl of the mixed solution was spotted onto MPTP MALDI target plate (Bruker Daltonics) and dried at room temperature. The instrument was tuned for optimal detection of small molecules (m/z 86–500) in positive polarity using the quadrature phase detection (QPD) (2ω) mode. The method was calibrated with red phosphorus over the mass range and DHB matrix ion [2M–2H2O+H]+ m/z 273.039364 was used as lock mass.
Incubation samples. 10 mM stock solutions of test compounds in DMSO were used to prepare 100 μM solutions by dilution in EtOH/water 25/75 (v/v). 6 μL of the 100 μM solution was spiked into 594 μL pre-warmed plasma at 37 °C giving a final concentration of 1 μM. The incubation tube was then mixed on a vortex. A sample (60 μL) was taken and added to an Eppendorf tube containing 180 μL acetonitrile. The tube was thoroughly mixed with a vortex. The precipitated sample was then treated with centrifugation (10.000 g, 10 minutes, 18 °C), 150 μL of the supernatant was mixed with 450 μL water directly into a LC-vial (glass). This step was repeated for every time point. The first time point was approximately taken 15-20 seconds after spiking.
Other timepoints were 5,10, 30, 60, 120, 240 minutes. Pre-precipitated samples. 594 μL of pre-warmed plasma was precipitated with 1800 μL ACN. 6 μL of the 100 μM solution was spiked into the precipitated plasma. 1 mL was removed and added to an Eppendorf tube. After a centrifugation step (10.000 g, 10 minutes, 18 °C), 150 μL of the supernatant was mixed with 450 μL water directly into a LC-vial (glass).
Metabolic stability in human microsomes
The assay was run at 37°C with a microsomal protein concentration of 0.5 mg/mL and a compound concentration of 1 μM in a 0.1 M potassium phosphate buffer at pH 7.4. The compounds were added to the microsome suspension whereafter the enzymatic reaction was initiated by the addition of the co-factor NADPH, giving a final NADPH concentration of 1 mM (Table 9). Samples […]
Plasma stability. The compounds were incubated separately at a concentration of 1 μM in +37°C pre-warmed pooled human plasma from commercial resources. The incubations were performed over a four-hour period with the first sample taken after addition of the compounds to plasma followed by a thorough mixing, with further sampling at 5, 10, and 30 minutes as well as 1,

[3] = Co-factor experiment: microsome suspension with and without NADPH; type: in vitro ADME, human; conditions: for Co-factor experiment: degradation with and without addition of NADPH compared; for microsomal CLint: human, human microsome suspension, both with and without the addition of NADPH, read-out: intrinsic clearance
Method: Therefore, additional experiments comparing stability with and without the addition of NADPH cofactor and a very short incubation period were performed (Tables S4 and S5). […] Due to the rapid observed degradation in microsomes, we decided to investigate the stability of five compounds in human plasma, aiming for a broad range of stabilities (Table 2, Table S6). It should be noted that esterase-labile compounds are notoriously difficult to study in microsomal stability studies.[36]
Table S3 Evaluation of metabolic stability in human microsomes
No. Metabolic stability Comment
4k <10/<10 Low retention in chromatography
8 <10/<10 Low retention in chromatography.
Table S4 Results from the modified microsome assay where degradation with and without the addition of NADPH was compared […]
4d Very low peak area for the first time point,
4e Very low peak area for the first time point,
4f Very low peak area for the first time point,
5 Very low peak area for the first time point,
8 No degradation without co -factor […]
metabolism by the microsomes (consisting mainly of cytochrome P450 enzymes) or if it was due to other factors, the compounds (with the exception of 4k) were incubated in the microsome suspension both with and without the addition of NADPH. Samples […]
were taken at three timepoints, and the degradation was compared to determine if it was dependent on NADPH. Compound 4k […]
without the addition of NADPH. […]
microsomes that need to be activated by a co -factor.
Table S5 Percent of peak area found in microsome suspension 15 seconds after the addition of NADPH in comparison with the same amount dissolved in H2O/EtOH
No. Area at 0.25 min. in Area in solution % found in microsomes/NADPH (125 nM) microsome
Comparison with compounds in solution. A comparison was made between the peak area of the compounds in solution with that obtained in the microsome suspension directly after the addition of NADPH (about 0.25 minutes) (Table S5). Before the addition of NADPH, the compounds are equilibrated in the microsome suspension for approximately five minutes. All compounds were prepared in solution by diluting a portion of the DMSO solutions with H2O/EtOH (75:25) to 125 nM (the final concentration of compounds for analysis in the microsome assay).
For the compounds where no results from the microsome assay could be reported due to low peak area (4d, 4e, 4f & 5), less than one percent of the expected peak area as compared with the area in solution was detected. […]
degrade rapidly before the addition of the co-factor after five minutes in incubation. For compounds 4g, 4h, 4i & 4j, which were […]
higher relative peak areas were found. […]
without NADPH was only found at 15% of the area seen in solution in the microsome suspension.

[4] = Chemical stability in 1.0 M NaHCO3 and 1.0 M HCl

| Structure (SMILES) | solubility [1] [µM] | half-life at 1 μM [2] [h] | remaining at 12 s, 1 μM [2] [%] | remaining at 5 min, 1 μM [2] [%] | remaining at 10 min, 1 μM [2] [%] | remaining at 0.5 h, 1 μM [2] [%] | remaining at 1 h, 1 μM [2] [%] | remaining at 2 h, 1 μM [2] [%] | remaining at 4 h, 1 μM [2] [%] | degradation in human plasma [2] | Co-factor experiment [3] | half-life at 5 mM ([4]; 1.0 M HCl) [h] | half-life at 5 mM ([4]; 1.0 M NaHCO3) [h] | microsomal CLint [3] [µL/min/mg] | half-life at 24 h, 5 mM ([4]; 1.0 M HCl) [h] | half-life at 24 h, 5 mM ([4]; 1.0 M NaHCO3) [h] |
| --- | --- | --- | --- | --- | --- | --- | --- | --- | --- | --- | --- | --- | --- | --- | --- | --- |
| CN(C)CCc1c[nH]c2cccc(OCc3ccccc3)c12 [Compound 3, 4-Benzyloxy-N,N-dimethyltryptamine] | > 90 | > 8 | 100 | 103 | 103 | 105 | 111 | 110 | 107 | no degradation was observed | No degradation without co-factor | > 167 | > 167 |  |  |  |
| CN(C)CCc1c[nH]c2cccc(OC(=O)C3CC3)c12.O=C(O)/C=C/C(=O)O [Compound 4g] | > 90 | < 0.0833 | 100 | 1.5 | 0.1 | 0 | 0 | 0 | 0 | almost no compound remained | Degradation without co-factor |  |  | > 200 | 100 | 183 |
| CN(C)CCc1c[nH]c2cccc(OP(=O)(O)O)c12 [Compound 8, 4-phosphoryloxy-N,N-dimethyltryptamine, reference compound] |  | > 8 | 100 | 135 |  | 130 | 122 | 127 | 122 | no degradation was observed | No degradation without co-factor | > 167 |  |  |  | 250 |
| CCOC(=O)Oc1cccc2[nH]cc(CCN(C)C)c12.O=C(O)/C=C/C(=O)O [Compound 4i] | 88 | < 0.0833 | 100 | 0 | 0 | 0 | 0 | 0 | 0 | almost no compound remained | Degradation without co-factor | > 167 |  | > 200 |  | 50 |
| CC(=O)Oc1cccc2[nH]cc(CCN(C)C)c12.O=C(O)/C=C/C(=O)O [Compound 4a, 4-acetoxy-N,N-dimethyltryptamine] | 77 | < 0.0833 | 100 | 0.2 | 0.2 | 0.2 | 0.2 | 0.1 | 0.2 | almost no compound remained | Degradation without co-factor |  |  | > 200 | 5 | 15 |

From article PMC11997985, “Synthesis and In Vitro Profiling of Psilocin Derivatives: Improved Stability and Synthetic Properties” (Journal of Medicinal Chemistry, 2025)
